Experimental data from patent US20250171438A1 (Agios Pharmaceuticals, Inc., priority 2022, published 2025).

Molecular target: T1, human PAH with the R408W mutation (Homo sapiens, UniProt P00439, R408W)
T1 construct: expressed in transfected cells
T1 sequence (P00439 1-452 R408W): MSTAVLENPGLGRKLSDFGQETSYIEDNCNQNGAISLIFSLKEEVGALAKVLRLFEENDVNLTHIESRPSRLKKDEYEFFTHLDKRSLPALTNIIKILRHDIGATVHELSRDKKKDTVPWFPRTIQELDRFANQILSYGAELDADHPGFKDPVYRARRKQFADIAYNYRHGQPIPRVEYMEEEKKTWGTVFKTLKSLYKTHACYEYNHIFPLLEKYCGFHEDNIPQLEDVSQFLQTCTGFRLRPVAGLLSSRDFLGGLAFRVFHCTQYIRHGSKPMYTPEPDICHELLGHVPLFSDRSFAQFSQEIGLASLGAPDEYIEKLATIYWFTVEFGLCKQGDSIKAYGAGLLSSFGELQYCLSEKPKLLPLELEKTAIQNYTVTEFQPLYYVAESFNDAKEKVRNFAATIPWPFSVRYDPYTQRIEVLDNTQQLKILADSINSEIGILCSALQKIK
Assay: Cell Based Phenylalanine Flux Assay
Conditions: A375 cells expressing human R408W PAH; 24 hrs compound incubation; 13C-Tyrosine by LC-MS; average where tested multiple times; read-out: AC50

AC50 [µM] | SMILES
0.5 to 1 | O=C(c1ocnc1-c1ccccc1)N1CCc2[nH]cnc2[C@H]1c1nc2ccccc2s1 [Example 1442]
< 0.5 | O=C(c1nnc(C2CC2)o1)N1CCc2[nH]cnc2[C@H]1c1nc2c(F)cccc2s1 [Example 1443]
1 to 5 | O=C(c1nnc(C2CC2)o1)N1CCc2[nH]cnc2[C@@H]1c1nc2c(F)cccc2s1 [Example 1444, (R)-(5-cyclopropyl-1,3,4-oxadiazol-2-yl)(4-(4-fluorobenzo[d]thiazol-2-yl)-6,7-dihydro-1H-imidazo[4,5-c]pyridin-5(4H)-yl)methanone]
< 0.5 | Cc1nc(-c2ccccn2)oc1C(=O)N1CCc2[nH]cnc2[C@H]1c1nc2c(F)cccc2s1 [Example 1445, (S)-(4-(4-fluorobenzo[d]thiazol-2-yl)-6,7-dihydro-1H-imidazo[4,5-c]pyridin-5(4H)-yl)(4-methyl-2-(pyridin-2-yl)oxazol-5-yl)methanone]
> 5 | Cc1nc(-c2ccccn2)oc1C(=O)N1CCc2[nH]cnc2[C@@H]1c1nc2c(F)cccc2s1 [Example 1446, (R)-(4-(4-fluorobenzo[d]thiazol-2-yl)-6,7-dihydro-1H-imidazo[4,5-c]pyridin-5(4H)-yl)(4-methyl-2-(pyridin-2-yl)oxazol-5-yl)methanone]
1 to 5 | CC(C)(O)c1ncc(C(=O)N2CCc3[nH]cnc3[C@@H]2c2nc3ccccc3s2)o1 [Example 1447, (R)-(4-(benzo[d]thiazol-2-yl)-6,7-dihydro-1H-imidazo[4,5-c]pyridin-5(4H)-yl)(2-(2-hydroxypropan-2-yl)oxazol-5-yl)methanone]
0.5 to 1 | CC(C)(O)c1ncc(C(=O)N2CCc3[nH]cnc3[C@H]2c2nc3ccccc3s2)o1 [Example 1448]
> 5 | O=C(c1ocnc1-c1ccccn1)N1CCc2[nH]cnc2[C@@H]1c1nc2ccccc2s1 [Example 1449, (R)-(4-(benzo[d]thiazol-2-yl)-6,7-dihydro-1H-imidazo[4,5-c]pyridin-5(4H)-yl)(4-(pyridin-2-yl)oxazol-5-yl)methanone]
0.5 to 1 | O=C(c1ocnc1-c1ccccn1)N1CCc2[nH]cnc2[C@H]1c1nc2ccccc2s1 [Example 1450]
< 0.5 | COCCc1ccc2c(C(=O)N3CCc4[nH]cnc4[C@H]3c3nc4ccccc4s3)cnn2c1 [Example 1451]
> 5 | COCCc1ccc2c(C(=O)N3CCc4[nH]cnc4[C@@H]3c3nc4ccccc4s3)cnn2c1 [Example 1452, (R)-(4-(benzo[d]thiazol-2-yl)-6,7-dihydro-1H-imidazo[4,5-c]pyridin-5(4H)-yl)(6-(2-methoxyethyl)pyrazolo[1,5-a]pyridin-3-yl)methanone]
< 0.5 | CN(C)CCc1ccc2c(C(=O)N3CCc4[nH]cnc4[C@H]3c3nc4ccccc4s3)cnn2c1 [Example 1453]
> 5 | CN(C)CCc1ccc2c(C(=O)N3CCc4[nH]cnc4[C@@H]3c3nc4ccccc4s3)cnn2c1 [Example 1454, (R)-(4-(benzo[d]thiazol-2-yl)-6,7-dihydro-1H-imidazo[4,5-c]pyridin-5(4H)-yl)(6-(2-(dimethylamino)ethyl)pyrazolo[1,5-a]pyridin-3-yl)methanone]
< 0.5 | CC(C)(F)c1ncc(C(=O)N2CCc3[nH]cnc3[C@H]2c2nc3ccccc3s2)o1 [Example 1455]
1 to 5 | CC(C)(F)c1ncc(C(=O)N2CCc3[nH]cnc3[C@@H]2c2nc3ccccc3s2)o1 [Example 1456, (R)-(4-(benzo[d]thiazol-2-yl)-6,7-dihydro-1H-imidazo[4,5-c]pyridin-5(4H)-yl)(2-(2-fluoropropan-2-yl)oxazol-5-yl)methanone]
1 to 5 | Cc1cnc(CC(=O)N2CCc3[nH]cnc3[C@H]2c2nc3ccccc3s2)s1 [Example 1457]

More lines, now with the values behind:

SMILES | AC50 [µM]
CC(C)(C)c1ncc(C(=O)N2CCc3[nH]cnc3[C@@H]2c2nc3c(F)cccc3s2)s1 [Example 1426, (R)-(2-(tert-butyl)thiazol-5-yl)(4-(4-fluorobenzo[d]thiazol-2-yl)-6,7-dihydro-1H-imidazo[4,5-c]pyridin-5(4H)-yl)methanone] | 0.5 to 1
CC(C)(C)c1ncc(C(=O)N2CCc3[nH]cnc3[C@H]2c2nc3ccccc3s2)o1 [Example 1427] | < 0.5
CC(C)(C)c1ncc(C(=O)N2CCc3[nH]cnc3[C@@H]2c2nc3ccccc3s2)o1 [Example 1428, (R)-(4-(benzo[d]thiazol-2-yl)-6,7-dihydro-1H-imidazo[4,5-c]pyridin-5(4H)-yl)(2-(tert-butyl)oxazol-5-yl)methanone] | 0.5 to 1
CC(C)(C)c1ncc(C(=O)N2CCc3[nH]cnc3[C@@H]2c2nc3c(F)cccc3s2)o1 [Example 1429, (R)-(2-(tert-butyl)oxazol-5-yl)(4-(4-fluorobenzo[d]thiazol-2-yl)-6,7-dihydro-1H-imidazo[4,5-c]pyridin-5(4H)-yl)methanone] | 0.5 to 1
CC(C)(C)c1ncc(C(=O)N2CCc3[nH]cnc3[C@H]2c2nc3c(F)cccc3s2)o1 [Example 1430] | < 0.5
Cc1nc(C(C)(C)C)oc1C(=O)N1CCc2[nH]cnc2[C@H]1c1nc2ccccc2s1 [Example 1431] | < 0.5
Cc1nc(C(C)(C)C)oc1C(=O)N1CCc2[nH]cnc2[C@@H]1c1nc2ccccc2s1 [Example 1432, (R)-(4-(benzo[d]thiazol-2-yl)-6,7-dihydro-1H-imidazo[4,5-c]pyridin-5(4H)-yl)(2-(tert-butyl)-4-methyloxazol-5-yl)methanone] | 1 to 5
Cc1nc(C(C)(C)C)oc1C(=O)N1CCc2[nH]cnc2[C@H]1c1nc2c(F)cccc2s1 [Example 1433] | 0.5 to 1
Cc1nc(C(C)(C)C)oc1C(=O)N1CCc2[nH]cnc2[C@@H]1c1nc2c(F)cccc2s1 [Example 1434, (R)-(2-(tert-butyl)-4-methyloxazol-5-yl)(4-(4-fluorobenzo[d]thiazol-2-yl)-6,7-dihydro-1H-imidazo[4,5-c]pyridin-5(4H)-yl)methanone] | 1 to 5
CC(C)(O)c1ncc(C(=O)N2CCc3[nH]cnc3[C@H]2c2nc3ccccc3s2)s1 [Example 1435] | < 0.5
CC(C)(O)c1ncc(C(=O)N2CCc3[nH]cnc3[C@@H]2c2nc3ccccc3s2)s1 [Example 1436, (R)-(4-(benzo[d]thiazol-2-yl)-6,7-dihydro-1H-imidazo[4,5-c]pyridin-5(4H)-yl)(2-(2-hydroxypropan-2-yl)thiazol-5-yl)methanone] | 1 to 5
c1cnc(N2CCc3[nH]cnc3[C@@H]2c2nc3ccccc3s2)nc1 [Example 1437, (R)-2-(5-(pyrimidin-2-yl)-4,5,6,7-tetrahydro-1H-imidazo[4,5-c]pyridin-4-yl)benzo[d]thiazole] | 1 to 5
c1cnc(N2CCc3[nH]cnc3[C@H]2c2nc3ccccc3s2)nc1 [Example 1438] | < 0.5
O=C(c1nnc(-c2ccccn2)o1)N1CCc2[nH]cnc2[C@H]1c1nc2ccccc2s1 [Example 1439] | < 0.5
O=C(c1nnc(-c2ccccn2)o1)N1CCc2[nH]cnc2[C@@H]1c1nc2ccccc2s1 [Example 1440, (R)-(4-(benzo[d]thiazol-2-yl)-6,7-dihydro-1H-imidazo[4,5-c]pyridin-5(4H)-yl)(5-(pyridin-2-yl)-1,3,4-oxadiazol-2-yl)methanone] | 1 to 5
O=C(c1ocnc1-c1ccccc1)N1CCc2[nH]cnc2[C@@H]1c1nc2ccccc2s1 [Example 1441, (R)-(4-(benzo[d]thiazol-2-yl)-6,7-dihydro-1H-imidazo[4,5-c]pyridin-5(4H)-yl)(4-phenyloxazol-5-yl)methanone] | > 5
